Reference: paper PMC11426533 (PLOS Pathogens, 2024)

Legend:
[1] = biological target: T1, ChiA (N-terminally trimmed version) (Clostridium perfringens, UniProt F8UNI5)
T1 construct: gene CP4_3455

ChiB = biological target: T2, ChiB (Clostridium perfringens, UniProt F8UNI4)
T2 construct: gene CP4_3454

[2] = biological target: T1, ChiA (N-terminally trimmed version); remark: listed apart in the source

T1 sequence (F8UNI5 46-611 limits assumed): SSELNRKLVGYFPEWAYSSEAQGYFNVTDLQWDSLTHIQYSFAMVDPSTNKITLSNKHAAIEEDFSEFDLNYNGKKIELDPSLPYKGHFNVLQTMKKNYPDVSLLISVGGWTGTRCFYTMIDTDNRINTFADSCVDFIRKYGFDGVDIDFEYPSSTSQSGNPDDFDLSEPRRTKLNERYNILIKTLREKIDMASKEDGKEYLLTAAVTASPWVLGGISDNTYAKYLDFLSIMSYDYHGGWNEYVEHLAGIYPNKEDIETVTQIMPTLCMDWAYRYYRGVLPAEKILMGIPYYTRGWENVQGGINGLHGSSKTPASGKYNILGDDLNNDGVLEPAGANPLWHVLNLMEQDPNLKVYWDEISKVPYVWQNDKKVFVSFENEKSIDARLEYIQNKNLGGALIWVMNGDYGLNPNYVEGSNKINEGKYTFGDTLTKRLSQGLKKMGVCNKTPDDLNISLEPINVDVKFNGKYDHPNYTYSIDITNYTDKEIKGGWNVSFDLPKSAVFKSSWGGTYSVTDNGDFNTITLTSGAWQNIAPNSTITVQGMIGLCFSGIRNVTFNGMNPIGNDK
T2 sequence (F8UNI4 1-599): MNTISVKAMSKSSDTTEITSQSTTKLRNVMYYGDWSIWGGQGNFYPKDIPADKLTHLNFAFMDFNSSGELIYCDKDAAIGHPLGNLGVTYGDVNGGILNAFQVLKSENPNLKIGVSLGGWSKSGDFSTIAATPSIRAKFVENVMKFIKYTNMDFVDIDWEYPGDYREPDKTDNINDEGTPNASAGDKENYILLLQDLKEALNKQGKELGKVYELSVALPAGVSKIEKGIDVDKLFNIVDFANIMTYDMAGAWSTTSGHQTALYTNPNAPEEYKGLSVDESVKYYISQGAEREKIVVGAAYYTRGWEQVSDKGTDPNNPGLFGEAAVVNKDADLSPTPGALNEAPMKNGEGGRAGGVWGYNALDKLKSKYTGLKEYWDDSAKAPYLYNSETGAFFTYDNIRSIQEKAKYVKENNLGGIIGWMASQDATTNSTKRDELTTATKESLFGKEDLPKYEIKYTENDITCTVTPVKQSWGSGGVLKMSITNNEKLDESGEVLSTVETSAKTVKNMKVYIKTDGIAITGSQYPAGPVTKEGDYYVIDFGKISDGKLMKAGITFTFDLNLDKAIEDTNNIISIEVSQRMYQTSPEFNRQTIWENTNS

| Compound | X-ray crystal structure by soaking, 1.35 Å [1] | X-ray co-crystal structure, 1.85 Å (ChiB) | X-ray co-crystal structure, 1.30 Å [2] |
| --- | --- | --- | --- |
| Cn1cnc2c1c(=O)n(CCCn1c(=O)c3c(ncn3C)n(C)c1=O)c(=O)n2C [Bisdionin C] | The crystal of ChiA in complex with the chitinase inhibitor Bisdionin C | The crystal of ChiB in complex with the chitinase inhibitor Bisdionin C |  |
| N[C@H]1[C@H](O[C@H]2[C@H](O)[C@@H](N)[C@H](O[C@H]3[C@H](O)[C@@H](N)[C@H](O[C@H]4[C@H](O)[C@@H](N)[C@H](O[C@H]5[C@H](O)[C@@H](N)[C@H](O[C@H]6[C@H](O)[C@@H](N)C(O)O[C@@H]6CO)O[C@@H]5CO)O[C@@H]4CO)O[C@@H]3CO)O[C@@H]2CO)O[C@H](CO)[C@@H](O)[C@@H]1O (stereo partly drawn) [chitosan hexamer] |  |  | The crystal of ChiA in complex with the chitinase inhibitor chitosan |
